Measured values from ChEMBL document CHEMBL1134975, “3-Hydroxy-4-methyl-5-pentyl-2-iminopyrrolidine: a potent and highly selective inducible nitric oxide synthase inhibitor” (Bioorg Med Chem Lett, 2002).

Legend:
[1] = target: Nitric oxide synthase, inducible (Homo sapiens, UniProt P35228); assay: Inhibitory concentration against Inducible nitric oxide synthase (iNOS)
[2] = target: Nitric oxide synthase 1 (Homo sapiens, UniProt P29475); assay: Inhibitory concentration against Neuronal nitric oxide synthase
[3] = target: T1, Nitric oxide synthase 3 (Homo sapiens, UniProt P29474); assay: Inhibitory concentration against Endothelial nitric oxide synthase
T1 sequence (P29474 whole entry): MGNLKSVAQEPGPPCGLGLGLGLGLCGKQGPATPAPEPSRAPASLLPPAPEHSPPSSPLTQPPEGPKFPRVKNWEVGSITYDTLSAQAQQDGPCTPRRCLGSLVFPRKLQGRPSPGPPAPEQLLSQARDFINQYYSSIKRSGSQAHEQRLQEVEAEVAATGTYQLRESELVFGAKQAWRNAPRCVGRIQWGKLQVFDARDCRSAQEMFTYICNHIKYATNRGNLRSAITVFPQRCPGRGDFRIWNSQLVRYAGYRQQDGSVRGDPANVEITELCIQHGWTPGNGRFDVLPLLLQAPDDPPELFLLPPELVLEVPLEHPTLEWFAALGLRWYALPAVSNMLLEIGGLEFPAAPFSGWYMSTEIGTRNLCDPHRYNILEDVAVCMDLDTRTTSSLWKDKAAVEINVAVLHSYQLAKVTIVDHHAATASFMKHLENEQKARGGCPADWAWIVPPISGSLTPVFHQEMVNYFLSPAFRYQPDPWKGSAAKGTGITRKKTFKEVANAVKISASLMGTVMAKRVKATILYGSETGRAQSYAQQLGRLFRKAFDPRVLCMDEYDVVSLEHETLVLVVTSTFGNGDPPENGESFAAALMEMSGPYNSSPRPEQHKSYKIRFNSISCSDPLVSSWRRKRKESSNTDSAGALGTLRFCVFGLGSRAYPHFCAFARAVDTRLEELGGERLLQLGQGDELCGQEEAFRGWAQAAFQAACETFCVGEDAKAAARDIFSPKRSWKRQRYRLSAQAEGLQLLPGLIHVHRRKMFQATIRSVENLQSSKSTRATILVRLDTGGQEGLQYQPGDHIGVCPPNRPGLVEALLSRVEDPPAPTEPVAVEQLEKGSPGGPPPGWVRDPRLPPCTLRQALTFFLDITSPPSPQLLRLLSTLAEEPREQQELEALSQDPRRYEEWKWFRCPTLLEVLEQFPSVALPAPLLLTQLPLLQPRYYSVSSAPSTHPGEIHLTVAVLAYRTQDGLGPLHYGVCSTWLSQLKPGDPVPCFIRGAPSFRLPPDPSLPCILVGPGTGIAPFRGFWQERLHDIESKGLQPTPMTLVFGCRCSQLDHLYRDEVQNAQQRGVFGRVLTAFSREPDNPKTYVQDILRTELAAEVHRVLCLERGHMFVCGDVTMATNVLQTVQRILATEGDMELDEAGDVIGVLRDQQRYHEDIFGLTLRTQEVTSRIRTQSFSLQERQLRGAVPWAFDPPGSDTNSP

[4] = target: T1, Nitric oxide synthase 3; assay: Inhibitory activity against Endothelial nitric oxide synthase

Sequence of Nitric oxide synthase, inducible (P35228 whole entry): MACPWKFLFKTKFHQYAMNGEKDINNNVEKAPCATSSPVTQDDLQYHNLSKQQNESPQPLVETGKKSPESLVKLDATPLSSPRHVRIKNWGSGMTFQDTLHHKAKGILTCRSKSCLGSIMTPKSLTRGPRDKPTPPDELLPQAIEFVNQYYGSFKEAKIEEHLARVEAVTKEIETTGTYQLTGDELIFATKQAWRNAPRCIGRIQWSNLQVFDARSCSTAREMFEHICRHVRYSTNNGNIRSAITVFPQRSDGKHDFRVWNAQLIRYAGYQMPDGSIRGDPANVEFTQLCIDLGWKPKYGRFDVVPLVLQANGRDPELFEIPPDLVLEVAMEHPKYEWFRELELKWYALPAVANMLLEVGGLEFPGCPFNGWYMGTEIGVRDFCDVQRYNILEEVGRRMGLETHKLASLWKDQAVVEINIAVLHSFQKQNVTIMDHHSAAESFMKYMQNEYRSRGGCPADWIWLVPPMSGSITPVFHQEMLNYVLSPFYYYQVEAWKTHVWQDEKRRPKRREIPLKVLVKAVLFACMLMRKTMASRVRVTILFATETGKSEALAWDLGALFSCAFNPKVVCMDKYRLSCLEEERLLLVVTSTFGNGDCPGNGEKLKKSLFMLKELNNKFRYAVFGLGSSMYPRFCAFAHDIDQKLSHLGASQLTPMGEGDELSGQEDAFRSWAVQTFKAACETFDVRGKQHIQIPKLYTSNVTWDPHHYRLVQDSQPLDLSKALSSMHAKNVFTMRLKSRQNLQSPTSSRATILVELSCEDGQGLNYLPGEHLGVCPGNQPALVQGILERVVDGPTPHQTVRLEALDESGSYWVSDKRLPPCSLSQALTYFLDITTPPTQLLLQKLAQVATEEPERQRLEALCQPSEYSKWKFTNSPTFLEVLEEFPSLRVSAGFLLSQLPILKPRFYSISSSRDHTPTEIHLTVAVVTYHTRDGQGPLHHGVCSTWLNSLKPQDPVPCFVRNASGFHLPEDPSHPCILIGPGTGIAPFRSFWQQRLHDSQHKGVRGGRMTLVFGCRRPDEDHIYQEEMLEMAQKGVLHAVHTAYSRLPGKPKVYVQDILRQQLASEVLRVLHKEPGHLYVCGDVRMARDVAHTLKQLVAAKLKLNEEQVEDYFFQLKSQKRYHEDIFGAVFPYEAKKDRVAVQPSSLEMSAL
Sequence of Nitric oxide synthase 1 (P29475 whole entry): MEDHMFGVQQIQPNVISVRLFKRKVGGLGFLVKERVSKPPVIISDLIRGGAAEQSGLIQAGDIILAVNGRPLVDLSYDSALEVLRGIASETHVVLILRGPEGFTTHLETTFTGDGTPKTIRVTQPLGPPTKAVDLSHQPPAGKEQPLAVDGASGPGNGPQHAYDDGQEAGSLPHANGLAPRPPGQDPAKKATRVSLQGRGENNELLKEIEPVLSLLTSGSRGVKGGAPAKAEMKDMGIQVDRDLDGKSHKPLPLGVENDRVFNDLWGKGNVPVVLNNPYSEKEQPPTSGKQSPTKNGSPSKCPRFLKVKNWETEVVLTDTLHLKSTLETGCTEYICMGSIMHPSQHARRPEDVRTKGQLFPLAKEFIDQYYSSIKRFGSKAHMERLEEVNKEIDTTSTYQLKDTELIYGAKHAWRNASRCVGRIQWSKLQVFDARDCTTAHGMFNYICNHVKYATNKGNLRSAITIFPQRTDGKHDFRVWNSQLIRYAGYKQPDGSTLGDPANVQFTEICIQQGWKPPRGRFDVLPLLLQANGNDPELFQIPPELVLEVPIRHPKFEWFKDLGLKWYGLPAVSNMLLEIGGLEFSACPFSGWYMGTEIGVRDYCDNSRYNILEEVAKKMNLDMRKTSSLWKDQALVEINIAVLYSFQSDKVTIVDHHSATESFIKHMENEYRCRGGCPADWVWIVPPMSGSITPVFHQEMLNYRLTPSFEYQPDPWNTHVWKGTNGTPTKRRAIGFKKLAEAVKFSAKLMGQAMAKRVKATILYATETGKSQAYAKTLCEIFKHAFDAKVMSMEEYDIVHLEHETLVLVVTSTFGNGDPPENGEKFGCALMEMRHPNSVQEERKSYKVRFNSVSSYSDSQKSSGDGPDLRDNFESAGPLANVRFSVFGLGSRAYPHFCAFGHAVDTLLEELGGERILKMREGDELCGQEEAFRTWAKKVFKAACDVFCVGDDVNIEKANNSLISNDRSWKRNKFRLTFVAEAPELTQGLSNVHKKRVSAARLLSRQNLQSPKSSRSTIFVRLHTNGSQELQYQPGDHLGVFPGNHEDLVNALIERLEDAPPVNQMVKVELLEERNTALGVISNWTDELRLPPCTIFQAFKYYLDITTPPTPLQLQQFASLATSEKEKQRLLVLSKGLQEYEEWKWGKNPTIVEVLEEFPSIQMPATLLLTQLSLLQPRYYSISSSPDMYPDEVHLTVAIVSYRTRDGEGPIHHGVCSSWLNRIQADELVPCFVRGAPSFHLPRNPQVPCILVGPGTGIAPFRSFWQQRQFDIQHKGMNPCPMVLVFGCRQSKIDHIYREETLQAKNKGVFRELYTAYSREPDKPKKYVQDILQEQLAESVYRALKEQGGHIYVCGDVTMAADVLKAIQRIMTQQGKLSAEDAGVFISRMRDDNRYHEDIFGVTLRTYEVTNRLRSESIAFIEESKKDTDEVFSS

IC50 [1] | IC50 [2] | IC50 [3] | IC50 [4] | Compound
1.8 µM | 20 µM | 930 µM | – | CCCCC[C@@H]1N=C(N)[C@@H](O)[C@@H]1C
1.8 µM | 8.9 µM | 695 µM | – | CCCCC[C@H]1N=C(N)[C@H](O)[C@H]1C
2.8 µM | 49 µM | 2930 µM | – | CCCCC[C@@H]1N=C(N)[C@H](O)[C@@H]1C
0.78 µM | 27 µM | – | 1980 µM | CCCCC[C@H]1NC(=N)[C@@H](O)[C@H]1C
0.25 µM | 3.2 µM | – | 226 µM | CCCCC[C@H]1NC(=N)C[C@H]1C
4.5 µM | 21 µM | – | 578 µM | CCCCC[C@H]1NC(=N)C[C@H]1C (single isomer, unassigned)
